Measured values taken from US20240262832A1, “SMALL MOLECULE MODULATORS OF GLUCOCEREBROSIDASE ACTIVITY AND USES THEREOF” (Vanqua Bio, Inc., priority 2021, published 2024).

Target: T1, GCase (Homo sapiens, UniProt P04062)
T1 construct: endogenous in cells; host or cells: HeLa cells
T1 sequence (P04062 40-536): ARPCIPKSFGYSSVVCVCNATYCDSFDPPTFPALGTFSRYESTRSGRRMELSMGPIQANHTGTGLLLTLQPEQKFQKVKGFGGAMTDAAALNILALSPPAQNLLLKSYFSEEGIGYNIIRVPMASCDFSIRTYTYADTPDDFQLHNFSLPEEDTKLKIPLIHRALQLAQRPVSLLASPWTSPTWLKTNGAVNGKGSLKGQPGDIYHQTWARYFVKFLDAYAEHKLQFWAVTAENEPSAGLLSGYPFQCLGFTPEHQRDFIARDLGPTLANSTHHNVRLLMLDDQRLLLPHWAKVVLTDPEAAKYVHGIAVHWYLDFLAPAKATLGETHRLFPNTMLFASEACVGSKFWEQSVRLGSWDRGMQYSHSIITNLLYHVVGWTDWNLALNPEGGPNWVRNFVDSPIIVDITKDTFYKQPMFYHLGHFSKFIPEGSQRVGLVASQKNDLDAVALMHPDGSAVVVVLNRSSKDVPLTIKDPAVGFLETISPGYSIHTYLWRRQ
Test: activation of GCase in a live cell PFB assay in HELA cells
Assay type: cell-based

EC50 [µM] | Structure (SMILES)
10 to 50 | COc1ccc(OCC2CCN(c3nc(C)ncc3Cl)CC2)cc1 [Compound 421]
10 to 50 | COc1cccc(C(C(=O)N2CCCC(COc3ccccc3)C2)C(C)C)c1 (stereo not shown) [Compound 141]
10 to 50 | C[C@@H]1CC[C@H](COc2cncc(C(F)(F)F)c2)CN1c1cnc2cnn(CC(F)F)c2n1 [Compound 273, 1-(2,2-Difluoroethyl)-6-((2R,5S)-2-methyl-5-(((5-(trifluoromethyl)pyridin-3-yl)oxy)methyl)piperidin-1-yl)-1H-pyrazolo[3,4-b]pyrazine]
50 to 100 | O=C(c1ccc2cc[nH]c2c1)N1CCC(OCc2ccccc2)CC1 [Compound 415, 6-[4-(Benzyloxy)piperidine-1-carbonyl]-1H-indole]
10 to 50 | FC(F)Cn1ncc2ncc(N3CCC(COc4ccc(C(F)(F)F)cn4)CC3)nc21 [Compound 317, 1-(2,2-Difluoroethyl)-6-(4-(((5-(trifluoromethyl)pyridin-2-yl)oxy)methyl)piperidin-1-yl)-1H-pyrazolo[3,4-b]pyrazine]
10 to 50 | O=C(c1ccc2cc[nH]c2c1)N1C[C@@H]2[C@@H](COc3cccc(C(F)(F)F)n3)[C@@H]2C1 [Compound 74, 6-[(1R,5S,6S)-6-({[6-(trifluoromethyl)pyridin-2-yl]oxy}methyl)-3-azabicyclo[3.1.0]hexane-3-carbonyl]-1H-indole]
10 to 50 | CC(=O)N1CCC(c2cc3ncc(N4CCCC(COc5ccccc5C)C4)nc3n2C)CC1 (stereo not shown) [Compound 86, 1-(4-(5-Methyl-3-(3-((o-tolyloxy)methyl)piperidin-1-yl)-5H-pyrrolo[2,3-b]pyrazin-6-yl)piperidin-1-yl)ethan-1-one]
10 to 50 | O=C(Cc1csc(-c2ccccc2)n1)N1CCC(COCc2ccccc2)CC1 [Compound 335, 1-{4-[(Benzyloxy)methyl]piperidin-1-yl}-2-(2-phenyl-1,3-thiazol-4-yl)ethan-1-one]
> 100 | O=C(NCCc1ccccc1)N1CCC(Oc2ccc(C(F)(F)F)cn2)CC1 [Compound 379]
< 10 | C[C@H](Oc1cccnc1C(F)(F)F)[C@H]1CCCN(c2cncc(-c3nncs3)n2)C1 [Compound 45a, 2-(6-((S)-3-((S)-1-((2-(Trifluoromethyl)pyridin-3-yl)oxy)ethyl)piperidin-1-yl)pyrazin-2-yl)-1,3,4-thiadiazole]
10 to 50 | O=C(N1CCC(Oc2ccc(C(F)(F)F)cn2)CC1)C1(c2ccccc2)CCOCC1 [Compound 381]
10 to 50 | Cn1c(-c2ccc(F)cc2)cc2ncc(C(=O)N3CCCC(COc4cccnc4C(F)(F)F)C3)nc21 (stereo not shown) [Compound 58, (6-(4-fluorophenyl)-5-methyl-5H-pyrrolo[2,3-b]pyrazin-3-yl)(3-(((2-(trifluoromethyl)pyridin-3-yl)oxy)methyl)piperidin-1-yl)methanone]
10 to 50 | COc1cnc2c(n1)c(C(=O)N1CCCC(COc3ccccc3C)C1)c(-c1ccccc1)n2C (stereo not shown) [Compound 264, (2-Methoxy-5-methyl-6-phenyl-5H-pyrrolo[2,3-b]pyrazin-7-yl)(3-((o-tolyloxy)methyl)piperidin-1-yl)methanone]
10 to 50 | c1ccc(COC2CCN(c3cnc4ccccc4n3)CC2)cc1 [Compound 417, 2-[4-(Benzyloxy)piperidin-1-yl]quinoxaline]
10 to 50 | COc1ccc(OCC2CCN(C(=O)c3cc(C(C)C)nc(N)n3)CC2)cc1 [Compound 461]
< 10 | FC(F)Cn1ncc2ncc(N3CCC(COc4ccnc(C(F)(F)F)c4)CC3)nc21 [Compound 315, 1-(2,2-Difluoroethyl)-6-(4-(((2-(trifluoromethyl)pyridin-4-yl)oxy)methyl)piperidin-1-yl)-1H-pyrazolo[3,4-b]pyrazine]
> 100 | Cc1nccn1CCCC(=O)N1CCC(OCc2ccccc2)CC1 [Compound 451]
10 to 50 | COc1ccc(OCC2CCN(C(=O)c3cccc(C#CC(C)(C)O)c3)CC2)cc1 [Compound 420]
10 to 50 | COc1ccc(OCC2CCN(C(=O)c3cccc(NC(=O)C(C)C)c3)CC2)cc1 [Compound 446]
10 to 50 | Fc1nccc(OC[C@@H]2[C@H]3CN(c4cnc5cnn(C6COC6)c5n4)C[C@@H]23)c1F [Compound 228]
10 to 50 | C[C@H]1C[C@H](COc2cccnc2C(F)(F)F)CN(c2cnc3cnn(CC(F)F)c3n2)C1 [Compound 100, 1-(2,2-Difluoroethyl)-6-((3S,5S)-3-methyl-5-(((2-(trifluoromethyl)pyridin-3-yl)oxy)methyl)piperidin-1-yl)-1H-pyrazolo[3,4-b]pyrazine]
10 to 50 | Cc1ccccc1CCC(=O)N1CCCC(COc2ccccc2)C1 (stereo not shown) [Compound 129]
> 100 | COc1ccc(OCC2CCN(Cc3cnc(C)[nH]3)CC2)cc1 [Compound 444]

EC50 [µM] | Structure (SMILES)
10 to 50 | O=C(c1ccc2cc[nH]c2c1)N1CCC(Oc2ccnc(C(F)(F)F)c2)CC1 [Compound 319, (1H-Indol-6-yl)(4-((2-(trifluoromethyl)pyridin-4-yl)oxy)piperidin-1-yl)methanone]
> 100 | COc1cccn(CC(=O)N2CCC(OCc3ccccc3)CC2)c1=O [Compound 447]
10 to 50 | C[C@@H](Oc1ccccc1C(F)(F)F)[C@@H]1CCCN(c2cnc3cnn(CC(F)F)c3n2)C1 [Compound 5b, 1-(2,2-difluoroethyl)-6-((R)-3-((R)-1-(2-(trifluoromethyl)phenoxy)ethyl)piperidin-1-yl)-1H-pyrazolo[3,4-b]pyrazine]
10 to 50 | CC(C)Sc1ccc(CC(=O)N2CCC(Oc3ccc(C(F)(F)F)cn3)CC2)cc1 [Compound 383]
10 to 50 | CCn1ncnc1CN1CCC(COc2ccc(OC)cc2)CC1 [Compound 455]
< 10 | FC(F)Cn1ncc2ncc(N3C[C@H](COc4cccnc4C(F)(F)F)C[C@@H](OC(F)F)C3)nc21 [Compound 299b, 1-(2,2-Difluoroethyl)-6-((3R,5R)-3-(difluoromethoxy)-5-(((2-(trifluoromethyl)pyridin-3-yl)oxy)methyl)piperidin-1-yl)-1H-pyrazolo[3,4-b]pyrazine]
> 100 | COc1ccc(OCC2CCN(CC(C)(C)N3CCOCC3)CC2)cc1 [Compound 467]
10 to 50 | O=C(c1ccn(Cc2ccccc2)n1)N1CCCC(COc2ccccc2)C1 (stereo not shown) [Compound 11]
10 to 50 | FC(F)Cn1ncc2ncc(N3C[C@@H]4[C@@H](COc5cnccc5C(F)(F)F)[C@@H]4C3)nc21 [Compound 91, (1R,5S,6S)-3-[1-(2,2-difluoroethyl)-1H-pyrazolo[3,4-b]pyrazin-6-yl]-6-({[4-(trifluoromethyl)pyridin-3-yl]oxy}methyl)-3-azabicyclo[3.1.0]hexane]
10 to 50 | O=C(c1nnc(C2(c3ccccc3)CCOC2)o1)N1CCCC(COc2ccccc2)C1 (stereo not shown) [Compound 76, 3-(phenoxymethyl)-1-[5-(3-phenyloxolan-3-yl)-1,3,4-oxadiazole-2-carbonyl]piperidine]
< 10 | Cc1ccccc1OCC1CCCN(C(=O)c2cnn3c(-c4ccccc4C#N)ccc(F)c23)C1 (stereo not shown) [Compound 296, 2-(4-Fluoro-3-(3-((o-tolyloxy)methyl)piperidine-1-carbonyl)pyrazolo[1,5-a]pyridin-7-yl)benzonitrile]
10 to 50 | C[C@@H]1[C@H](C(=O)N2CCCC(COc3ccccc3)C2)CCN1c1ccccc1 (stereo partly shown) [Compound 199]
10 to 50 | O=C([C@@H]1C[C@H]1c1ccc(F)cc1)N1CCCC(COc2ccccc2)C1 (stereo partly shown) [Compound 219]
> 100 | COc1ccc(OCC2CCN(C(=O)Nc3cccc(CN)c3)CC2)cc1 [Compound 442]
10 to 50 | Cc1cc(C(=O)N2CCCC(COc3ccccc3)C2)c(C)n1C(C)C (stereo not shown) [Compound 170]
> 100 | C[C@@H]1CC[C@H](COc2cccc(C(F)(F)F)n2)CN1c1cnc2cnn(CC(F)F)c2n1 [Compound 269, 1-(2,2-Difluoroethyl)-6-((2R,5S)-2-methyl-5-(((6-(trifluoromethyl)pyridin-2-yl)oxy)methyl)piperidin-1-yl)-1H-pyrazolo[3,4-b]pyrazine]
10 to 50 | C[C@@H](Oc1ccccc1C(F)(F)F)[C@H]1CCCN(c2cnc3cnn(CC(F)F)c3n2)C1 [Compound 266a, 1-(2,2-Difluoroethyl)-6-((S)-3-((R)-1-(2-(trifluoromethyl)phenoxy)ethyl)piperidin-1-yl)-1H-pyrazolo[3,4-b]pyrazine]
10 to 50 | O=C(c1cnn(-c2ccccc2F)n1)N1CCCC(COc2ccccc2)C1 (stereo not shown) [Compound 22, (2-(2-Fluorophenyl)-2H-1,2,3-triazol-4-yl)(3-(phenoxymethyl)piperidin-1-yl)methanone]
< 10 | O=C(C1CC1)N1CCC(c2cncc(N3CCCC(COc4ccccc4C(F)(F)F)C3)n2)CC1 (stereo not shown) [Compound 113, Cyclopropyl(4-(6-(3-((2-(trifluoromethyl)phenoxy)methyl)piperidin-1-yl)pyrazin-2-yl)piperidin-1-yl)methanone]
> 100 | O=C(c1ncc(Cl)s1)N1CCCC(COc2ccccc2)C1 (stereo not shown) [Compound 137]
> 100 | COc1ccc(OCC2CCN(c3cc(C4CC(N)C4)ncn3)CC2)cc1 (stereo not shown) [Compound 482]
10 to 50 | O=C(c1ccc2cc[nH]c2c1)N1CCC(Oc2cnccc2C(F)(F)F)CC1 [Compound 310, (1H-Indol-6-yl)(4-((4-(trifluoromethyl)pyridin-3-yl)oxy)piperidin-1-yl)methanone]
10 to 50 | CCCC(C(=O)N1CCCC(COc2ccccc2)C1)n1nccc1C1CC1 (stereo not shown) [Compound 9]
